For assay [1], the system named is whole blood viscosity. As to the kind of experiment: Whole blood viscosity by RBC pipette method, before and after oral APM administration to patients. Format: in vivo. The procedure:
Blood samples were obtained from ten patients having homozygous HgBss disease or heterozygous Hgbsc disease before and after a blinded administration of APM at 1.5 (low dose), 3 (medium dose), or 6 (high dose) milligrams per kilogram body weight. TABLE I: Patient Characteristics
Viscosity determinations using the RBC pipette method of Wright and Jenkins (1970, Blood 36:516) were made on each blinded whole blood sample before and 120 minutes after blinded administration of APM. Each measurement was made in triplicate. Control viscosity measurements using saline and water for each patient and normal whole blood were also made to validate the viscosity measurements.
(§1) To measure viscosity, 1.01 cc of the test fluid, i.e., either water, saline or blood, was drawn into an RBC pipette using a 50 cc syringe attached via rubber tubing to the top of the RBC pipette. Using a constant pressure of 20 mm by maintaining the pressure with visual feedback and hand pressure, the amount of time it took for the test fluid to drip out of the RBC pipette was measured with a stopwatch. Each measurement was made in triplicate. Changes in viscosity from baseline for patient blood samples were recorded and compared to normal controls.

Assay [2] deals with whole blood viscosity. As to the kind of experiment: Whole blood viscosity by RBC pipette method after in vitro addition of APM to patient blood samples. The arrangement: species or system patients. The following applies: for viscosity of the blood samples compared to the control: samples at 480 minutes post-treatment, additional 1 or 2 milligrams/milliliter APM in vitro. The procedure:
as §1
Samples with high viscosity readings at 480 minutes or 1,440 minutes post-treatment, chosen to represent patients with a validated response to APM who were returning to normal, were divided and treated with an additional 0, 1, or 2 milligrams/milliliter APM in vitro, in an effort to measure whether a second inducible sickling response was possible and if a second response to the in vitro APM addition could be observed. The viscosity of each sample at 480 minutes post-treatment was measured.

The test system of assay [3] is red blood cells containing HbS. Conditions: disclosed in WO 00/18418; cited from earlier work.
The conditions of assay [4]: clinical trial; unknown mechanism; cited from earlier work.
For a further assay, the system named is sickle cells. As to the kind of experiment: Metabisulfite slide test to measure sickling in blood samples. Format: cell-based, patients.
[5] abbreviates: all ten patients, baseline vs 120 minutes post-treatment, APM 1.5, 3 or 6 mg/kg body weight.

Where a SMILES comes first, the peptide text is derived from it.

Turning to `COC(=O)[C@H](Cc1ccccc1)NC(=O)[C@@H](N)CC(=O)O` [APM, N-L-alpha-aspartyl-L-phenylalanine 1-methyl ester] (H-Asp-Phe-OMe), the “viscosity of HgBss blood” value with whole blood viscosity [1] (APM given orally) and in the assay on whole blood viscosity [2] (addition of APM in vitro) was “reduces” in each case. Besides, the “effect on Hgbsc blood” value in the assay on whole blood viscosity [1] (APM in vivo) and in the assay on whole blood viscosity [2] (APM in vitro) was “not affected” each time. The “No. of Patients, Viscosity change decreasing, HgBss” value in the assay with whole blood viscosity [1] (HgBss patients, baseline vs 120 minutes post-treatment) is reported as 5. Further, the “No. of Patients, Viscosity change increasing, Hgbsc” value in the assay on whole blood viscosity [1] (Hgbsc patients, baseline vs 120 minutes post-treatment) came out at 3. Besides, the “No. of Patients, Viscosity change decreasing” value in the assay on whole blood viscosity [1] (setting [5]) is 7. Also, the “No. of Patients, Viscosity change increasing” value with whole blood viscosity [1] (setting [5]) is given as 3. Besides, the “viscosity compared against Pirofsky's change in viscosity vs. hematocrit standard” value in the assay with whole blood viscosity [1] (blood samples from patients with sickle cell disease (HgBss)) is on record as “decreased”; with whole blood viscosity [1] (blood samples from patients with sickle cell trait (Hbgsc)) it was “increased”. Also, the “blood viscosity after treatment over time” value in the assay on whole blood viscosity [1] (five patients identified as HgBss, baseline vs 120 minutes post-treatment) is given as “decreased”; with whole blood viscosity [1] (two patients diagnosed as sbthal, baseline vs 120 minutes post-treatment), “decreased”. In addition, the “No. of Patients, Viscosity change decreasing, sbthal” value with whole blood viscosity [1] (sbthal patients, baseline vs 120 minutes post-treatment) worked out at 2. Besides, in the assay with whole blood viscosity [1] (three patients diagnosed as Hgbsc, baseline vs 120 minutes post-treatment), the “viscosity after treatment over time” value is “increased”. Also, the “viscosity of the blood samples compared to the control” value with whole blood viscosity [2] (HgBss patients) is “decreased”; in the assay with whole blood viscosity [2] (Hgbsc patients), “increase”. Further, the “capacity of red blood cells containing HbS to sickle with hypoxemia” value in assay [3] is “reduction”. Besides, the “pain and inflammation of osteo- and mixed osteo- and rheumatoid arthritis” value in assay [4] is “alleviate”. Further, the “number of sickle cells in HgBss blood” value in the assay with sickle cells (APM given orally) and with sickle cells (addition of APM in vitro) was “reduces” each time.

Source of the values: patent publication EP1218024B1, “ASPARTAME DERIVATIVES FOR DECREASING BLOOD VISCOSITY” (Oklahoma Medical Research Foundation, priority 1999, dated 2001).
